Results taken from patent US8029984B2, “Materials and methods for colorectal cancer screening, diagnosis and therapy” (Licentia, Ltd., priority 2003, dated 2011).

Legend:
Type in all cases: cell-based, human
[1] = system: SW480R cells; test: Treatment of SW480R cells with inhibitor of DNA methyltransferases
Text: (§1) DNA methylation is frequently abnormal in colorectal cancer, and it was reported recently that Prox-1 expression is suppressed in human hematological cell lines due to hypermethylation of CpG islands in intron 1 of Prox-1 (Nagai, H. et al., Genes Chromosomes Cancer 38, 13-21 (2003)).

[2] = system: SW480A cells; test: Treatment of SW480A cells with inhibitor of DNA methyltransferases
Text: as §1

[3] = system: SW480R cells; test: BrdU incorporation in siRNA transfected SW480R cells
Description: Transfection of siRNAs was carried out using lipofectamine 2000 (Invitrogen) according to manufacturer's instructions using 0.5% (v/v) lipofectamine 2000 reagent for SW480R and 0.4% (v/v) lipofectamine 2000 for adherent SW480 cells and either 2 nM or 100 nM (f.c.) of siRNA. Transfections were carried out in antibiotic-free media for 4-6 hours before changing cells back to normal culture media. For long-term experiments siRNA transfections were repeated after 48-72 h from previous transfection (at protein level the silencing effect was seen to remain efficient for at least 96 h). Normally approximately 90-95% transfection efficiency was achieved. Opti-MEM (Invitrogen) medium was used in preparation of transfection mixtures.
Experiments were conducted to investigate whether Prox-1 plays role in the generation and maintenance of the highly transformed phenotype. Prox-1 mRNA and protein in the SW480R cells was suppressed using Prox-1 targeting siRNA. […] Eventually the Prox-1 siRNA cells started to spread on the plate and a number of increased actin stress fibers could be visualized by phalloidine staining.

[4] = system: SW480R cells; test: Soft agar assay (anchorage-independent growth); conditions: transfected repeatedly over 8 days, two weeks of growth
Description: FIG. 3 depicts the efficacy of Prox-1 suppression for inhibiting SW480R cell growth in soft agar. SW480R cells were transfected with GFP siPRNA, Prox-1 siRNA A16 or Prox-1 siRNA A25 or left untreated, and seeded in soft agar in triplicate. The number of colonies was scored after two weeks of growth.
For soft agar assay, 2×10^3 and 2×10^4 cells were seeded in triplicate in 1 ml of 0.33% (w/v) agar (Difco) containing D-MEM, 10% fetal bovine serum, 1 mM glutamine and antibiotics in 6-well plates containing 1 ml of 0.5% bottom agar layer. Cells were fed twice a week, and number of colonies per plate was scored after two weeks in culture.
Since anchorage-independent growth is one of the hallmarks of malignant transformation, experiments were conducted to assess the effects of Prox-1 suppression on the growth of SW480R cells in soft agar. SW480R cells were transfected with GFP siPRNA, Prox-1 siRNA A16 or Prox-1 siRNA A25 repeatedly over an 8-day period, or left untreated, and seeded in soft agar in triplicate. The number of colonies was scored after two weeks of growth.

Compound	Prox-1 expression [1]	Prox-1 mRNA [2]	expression of TIMP3 [2]	BrdU positive cells [3]	number of colonies formed in soft agar [4]
Nc1ncn([C@H]2C[C@H](O)[C@@H](CO)O2)c(=O)n1 [5-aza-2′-deoxycytidine]	almost completely suppressed	did not result in the increase	increase	–	–
GFP siRNA: control siRNA, sense GACGUAAACGGCCACAAGUUU (SEQ ID NO: 8), antisense ACUUGUGGCCGUUUACGUCUU (SEQ ID NO: 9) (listed as RNA, chemistry not given here; listed as Homo sapiens)	–	–	–	34±4%	–
Prox-1 siRNA A16: siRNA duplex, sense 5′-CUGCAAGCUGGAUAGUGAAGU-3′ (SEQ ID NO: 4), antisense 5′-UUCACUAUCCAGCUUGCAGAU-3′ (SEQ ID NO: 5) (RNA, backbone not given here; listed as Homo sapiens)	–	–	–	22±0.5%	significantly decreased
Prox-1 siRNA A25: siRNA duplex, sense 5′-CUAUGAGCCAGUUUGAUAUUU-3′ (SEQ ID NO: 6), antisense 5′-AUAUCAAACUGGCUCAUAGUU-3′ (SEQ ID NO: 7) (RNA, backbone not given here; listed as Homo sapiens)	–	–	–	18±1%	significantly decreased
